We go through four molecules from US20220048988A1, “CELLS EXPRESSING ANTIBODIES TARGETING HUMAN IMMUNODEFICIENCY VIRUS AND METHODS OF USING THE SAME” (priority 2018, published 2022).

Assay [1] deals with viruses isolated from quantitative viral outgrowth assay (QVOA) supernatants. The experiment in a line: Infected-cell binding with viruses isolated from QVOA supernatants. Details: species or system HIV. From the text:
(§1) We developed a method to perform paired testing of neutralization and infected-cell binding (predictive of ADCC^6) and applied this to 36 viruses that we isolated from quantitative viral outgrowth assay (QVOA) supernatants, using a panel of 14 clinically relevant bnAbs.

Assay [2] has the same test system. The experiment in a line: Neutralization of viruses isolated from QVOA supernatants. The assay is classed as cell-based, HIV.
From the text: as §1

In assay [3] the test system is HIV-infected CD4+ T-cells. The experiment in a line: Binding of secreted 10-1074 bnAb to HIV-infected CD4+ T-cells (flow cytometry). Conditions: virus from latent reservoir of participant OM5334, high MOI (~70% Gag+). The source says: Binding of secreted 10-1074 bnAb to HIV-Infected CD4^+ T-cells. […] These cells were then stained with a fluorochrome-conjugated anti-human-IgG1 antibody, and analyzed by flow cytometry. […] We therefore performed an additional experiment using a lower multiplicity of infection (MOI) of the HIV molecular clone SF162. […] However, it has been well-established that Ab-binding to infected cells is predictive of ADCC^6.

In a further assay the test system is pseudovirus. The experiment in a line: Standard pseudovirus neutralization assay. The assay is classed as cell-based, HIV. As for the experimental part: Virus neutralization by secreted 10-1074. We also tested whether the supernatants secreted from TbnAb are capable of neutralizing HIV by using a standard pseudovirus assay. Briefly, supernatants obtained from TbnAbs were diluted five fold and incubated with pseudovirus. Target cells were then added, and a single-round of infection was allowed to proceed for 48 h^1. In certain lines, we observed 20-30% neutralization of virus at this single concentration (data not shown). […] (data not shown). […] Thus, the data support that the 10-1074 in these supernatants is functionally equivalent to purified 10-1074 on a per concentration basis.

The test system of the next assay is HIV SF162. The experiment in a line: Viral inhibition assay (p24). The assay is classed as cell-based. The conditions noted are these: antibody alone, absence of NK cells, n=2 replicates.
The test system of another assay is HIV. The conditions noted are these: in a subset of the population; cited from earlier work.
For assay [4], the system named is HIV envelope expressing HeLa cells. The experiment in a line: HIV binding: HIV envelope expressing HeLa cells (flow cytometry). The conditions noted are these: supernatant of transduced cells. As for the experimental part:
HIV envelope expressing HeLa cells were obtained from NIH AIDS Reagent Program (69T1 RevEnv Cells, #3336). HeLa Envelope cells were fixed with 4.2% paraformaldehyde (BD, #554655) for 20 minutes at 4° C. Cells were washed in chilled Facs Buffer (PBS+2% FBS) and incubated in supernatant containing secreted antibody from transduced Jurkat T cells or non-specific antibodies from nontransduced Jurkat T cells for 1 hour at room temperature. Cells were washed an additional two times in Facs Buffer and incubated with goat anti-human IgG (H+L) FITC (Life Technologies, #H10301) for 30 minutes at room temperature.
To test whether the T cell secreted antibodies maintain their ability to recognize HIV envelope, we used HeLa cells expressing Env obtained from the AIDS reagent program.

The subject of another assay is non-expressing cells. Put plainly: HIV binding: non-expressing cells (flow cytometry). The conditions noted are these: supernatant of transduced cells. On the technique in general: Flow cytometry measures light scatter and fluorescence of single cells or particles in a stream.
The target in assay [5] is HIV envelope (Env) expressed on HeLa cells (69T1 RevEnv Cells) (HIV). The experiment in a line: cell-based or functional assay.
Assay [6] has as its target 36 viruses isolated from quantitative viral outgrowth assay (QVOA) supernatants. Put plainly: cell-based or functional assay.

In the case of “10-1074: Monoclonal antibody 10-1074 targets the V3 glycan supersite on the HIV-1 envelope (Env) protein; broadly neutralizing”, the “binding characteristics (breadth and potency)” value in assay [1] (36 viruses, panel of 14 bnAbs) is listed as “superior binding characteristics”. The infected cell binding entry in assay [1] (OM5162 virus isolate #3) is reported as “lack of 10-1074 binding”; in assay [1] (patient OM5162 virus isolate #1), “binding”. Moreover, the viruses potently neutralized in assay [2] (36 viruses isolated from QVOA supernatants) is given as 24/36. The “median IC50 against reservoir viruses” value in assay [2] (reservoir viruses) was 0.3 mg/L. Further, the “binding to HIV-infected CD4+ T cells” value in assay [3] is “efficient binding”. Also, the “concentration giving 20-30% neutralization” value with pseudovirus (purified antibody curves) fell in the range of 0.01 to 0.1 µg/mL. In addition, the “HIV p24 (viral inhibition)” value amounted to 6892.442±168.555 in the assay on HIV SF162 (FIG. 10A), 757.911±163.351 in the assay on HIV SF162 (FIG. 10B) and 22914.671±2305.507 with HIV SF162 (FIG. 10C). For the same molecule, in the assay on HIV, the “HIV RNA levels” value is given as “transiently decrease HIV RNA levels”.
In the case of “TbnAb secreted 10-1074: 10-1074 antibody secreted into supernatants by transduced T cells”, the “binding to HIV-infected CD4+ T cells” value in [3] is listed as “specific binding”; in assay [3] (listed as antibody secreted by HIV specific TbnAb cell lines), “specifically binds”. The neutralization of virus in the assay with pseudovirus (supernatants diluted five fold (0.03 ug/ml of 10-1074), single-round infection 48 h, certain lines) is 20-30%. In addition, the “binding to envelope-expressing cells” value in [4] is “bind”. For the same molecule, the “binding to non-expressing cells” value in the assay on non-expressing cells is recorded as “not”.

B1: T cell-secreted 10-1074 antibody from the 10-1074 Ab construct (IgG3 constant region) (antibody, V domains shown)
VH: QVQLQESGPGLVKPSETLSVTCSVSGDSMNNYYWTWIRQSPGKGLEWIGYISDRESATYNPSLNSRVVISRDTSKNQLSLKLNSVTPADTAVYYCATARRGQRIYGVVSFGEFFYYYSMDVWGKGTTVTVSS
VL: SYVRPLSVALGETARISCGRQALGSRAVQWYQHRPGQAPILLIYNNQDRPSGIPERFSGTPDINFGTRATLTISGVEAGDEADYYCHMWDSRSGFSWSFGGATRLTVLV
For the molecule B1, in [5], the NK cell killing (ADCC; europium cytotoxicity assay, primary NK cells) was 34.5 and the increase in killing from ADCC is 10.5%.

B2: 10-1074 antibody (purified) (antibody, V domains shown)
VH: QVQLQESGPGLVKPSETLSVTCSVSGDSMNNYYWTWIRQSPGKGLEWIGYISDRESATYNPSLNSRVVISRDTSKNQLSLKLNSVTPADTAVYYCATARRGQRIYGVVSFGEFFYYYSMDVWGKGTTVTVSS
VL: SYVRPLSVALGETARISCGRQALGSRAVQWYQHRPGQAPILLIYNNQDRPSGIPERFSGTPDINFGTRATLTISGVEAGDEADYYCHMWDSRSGFSWSFGGATRLTVL
In [6], B2 yielded a median IC50 (neutralization) of 0.3 mg/L.
